Measured values reported in patent publication US20170007561A1, “CONTEMPORANEOUS, HETEROGENEOUSLY-ORIENTED, MULTI-TARGETED THERAPEUTIC MODIFICATION AND/OR MODULATION OF DISEASE BY ADMINISTRATION OF SULFUR-CONTAINING, AMINO ACID-SPECIFIC SMALL MOLECULES” (BioNumerik Pharmaceuticals, Inc., priority 2014, published 2017).
Values joined by “and” are separate entries in the source; they are usually repeats but may differ in a detail not shown here. Equal values may be shown once. “Also recorded” adds a separate entry of the source. Read-outs that look alike come from different tables or passages of the source.

What was measured:
[1] = system: bovine brain microtubule protein (α-/β-tubulin); assay: Microtubule protein polymerization assay (OD350); type: biochemical
[2] = target: T1, human Trx with rat liver TrxR (Homo sapiens, UniProt P10599); assay: TrxR/Trx insulin disulfide reduction assay (NADPH oxidation 340 nm, insulin B chain precipitation 650 nm); type: biochemical; conditions: Tavocept 0-10 mM, insulin 86 μM
T1 sequence (P10599 1-105): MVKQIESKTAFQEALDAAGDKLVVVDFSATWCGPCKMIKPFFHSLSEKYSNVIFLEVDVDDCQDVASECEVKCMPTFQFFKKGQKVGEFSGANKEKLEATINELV

[3] = target: human peroxiredoxin 4 (PRX4) (Homo sapiens, UniProt Q13162); assay: X-ray crystallography and Mass Spectrometry of Prx 4 with Tavocept-derived mesna; conditions: 40 mM Tavocept; MS and X-ray
human peroxiredoxin 4 (PRX4), sequence (Q13162 79-271 limits assumed): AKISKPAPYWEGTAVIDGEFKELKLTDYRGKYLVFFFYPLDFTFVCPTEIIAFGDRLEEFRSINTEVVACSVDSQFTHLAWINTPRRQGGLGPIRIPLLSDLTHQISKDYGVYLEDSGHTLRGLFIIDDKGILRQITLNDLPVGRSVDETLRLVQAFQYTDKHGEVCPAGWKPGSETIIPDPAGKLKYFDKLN

T790M EGFR kinase = T790M EGFR kinase (Homo sapiens, UniProt P00533, T790M); assay: EGFR kinase assay (ADP-glo, polyGT substrate), T790M mutant; type: biochemical
T790M EGFR kinase, sequence (P00533 25-1210 T790M): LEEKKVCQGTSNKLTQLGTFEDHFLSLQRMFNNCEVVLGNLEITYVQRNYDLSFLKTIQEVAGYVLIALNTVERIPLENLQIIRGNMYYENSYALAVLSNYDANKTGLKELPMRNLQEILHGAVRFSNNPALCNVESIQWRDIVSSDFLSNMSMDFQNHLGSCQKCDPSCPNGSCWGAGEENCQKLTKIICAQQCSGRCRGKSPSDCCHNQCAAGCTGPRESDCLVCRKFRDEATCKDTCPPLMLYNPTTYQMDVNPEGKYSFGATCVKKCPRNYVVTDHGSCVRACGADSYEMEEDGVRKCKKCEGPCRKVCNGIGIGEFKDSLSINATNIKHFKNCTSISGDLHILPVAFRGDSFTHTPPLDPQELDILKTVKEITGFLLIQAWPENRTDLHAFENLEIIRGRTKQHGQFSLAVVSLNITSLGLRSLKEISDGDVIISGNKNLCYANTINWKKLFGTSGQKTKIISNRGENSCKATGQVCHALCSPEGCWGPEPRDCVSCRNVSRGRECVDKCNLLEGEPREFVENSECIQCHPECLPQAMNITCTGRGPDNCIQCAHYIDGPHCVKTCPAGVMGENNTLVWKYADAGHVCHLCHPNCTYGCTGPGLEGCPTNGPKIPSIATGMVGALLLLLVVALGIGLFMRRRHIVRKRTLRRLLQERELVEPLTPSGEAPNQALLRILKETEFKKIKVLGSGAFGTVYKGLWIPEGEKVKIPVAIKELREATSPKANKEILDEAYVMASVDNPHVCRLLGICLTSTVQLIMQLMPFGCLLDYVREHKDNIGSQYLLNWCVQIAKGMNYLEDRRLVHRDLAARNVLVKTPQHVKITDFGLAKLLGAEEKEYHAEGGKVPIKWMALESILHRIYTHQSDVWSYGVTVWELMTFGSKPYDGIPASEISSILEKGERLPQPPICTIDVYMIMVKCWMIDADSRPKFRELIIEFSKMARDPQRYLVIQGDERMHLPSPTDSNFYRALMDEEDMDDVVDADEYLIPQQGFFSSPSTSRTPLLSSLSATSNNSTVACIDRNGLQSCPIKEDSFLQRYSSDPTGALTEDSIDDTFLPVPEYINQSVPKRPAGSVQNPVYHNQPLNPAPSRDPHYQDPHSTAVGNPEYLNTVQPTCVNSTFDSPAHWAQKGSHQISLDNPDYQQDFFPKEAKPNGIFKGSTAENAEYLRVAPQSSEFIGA

FTase = target: T2, FTase (Homo sapiens, UniProt P49354+P49356); assay: FTase-mediated farnesylation of Dansyl-GCVLS peptide; type: biochemical
T2 construct: purchased Abcam
T2 sequence (P49356 whole entry, one chain of several): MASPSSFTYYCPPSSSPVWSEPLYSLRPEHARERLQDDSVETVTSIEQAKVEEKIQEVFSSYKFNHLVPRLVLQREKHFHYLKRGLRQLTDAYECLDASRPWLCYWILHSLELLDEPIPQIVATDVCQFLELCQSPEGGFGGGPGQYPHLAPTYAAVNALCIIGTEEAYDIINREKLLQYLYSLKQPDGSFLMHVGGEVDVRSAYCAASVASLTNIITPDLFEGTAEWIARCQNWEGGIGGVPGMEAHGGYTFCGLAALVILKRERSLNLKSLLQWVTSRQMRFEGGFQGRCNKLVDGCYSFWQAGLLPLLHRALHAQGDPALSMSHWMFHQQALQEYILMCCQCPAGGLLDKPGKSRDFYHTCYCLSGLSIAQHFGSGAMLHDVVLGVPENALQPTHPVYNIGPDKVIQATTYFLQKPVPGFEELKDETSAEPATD
From the text: Panel A: Progress curve showing FTase-mediated farnesylation of Dansyl-GCVLS peptide. Panel B: Relative rates from reactions shown in Panel A.

[4] = cited from earlier work
[5] = system: Stage IV primary adenocarcinoma of the lung; assay: Tavocept Phase III Clinical Trial (interim analysis); type: in vivo, human
From the text: In the Tavocept Phase III Clinical Trial pre-specification was made through stratification factors including sex (i.e., male versus female) and taxane treatment (i.e., paclitaxel versus docetaxel). Eligible patients had not received prior drug treatment for their cancer, and inclusion in the trial was also allowed for patients who had relapsed following surgery for earlier stage disease as well as patients with central nervous system metastasis. A total of 540 patients were enrolled on the trial.
The primary endpoint of this study was overall survival (OS); defined as the time period from the date of patient randomization to the date of death due to any cause.
Patient eligibility was determined by compliance with protocol-specified inclusion and exclusion criteria.
All patients received standard combination chemotherapy (taxane agent plus cisplatin) and either Tavocept or placebo.
Treatment was administered every 3 weeks for a maximum of 6 cycles (one treatment cycle=21 days).
The primary endpoint for analysis was the duration of overall survival, defined as the time from the date of randomization to the date of death due to any cause. The number of mortality events used for the final analysis depended upon the number of patients enrolled into the study (provided the sample size was adjusted at the interim analysis). For the primary analysis, the expected number of total mortality events was approximately 416 mortality events for a sample size of 575 patients.
The one-sided log-rank test was performed in order to allow the application of the adaptive methodology. Details of this 2-stage adaptive design are described below. Kaplan-Meier survival curves (including identification of censored observations) was presented by treatment group, as well as median survival times and their 95% confidence intervals.
The following specific endpoints were evaluated with pre-specified analyses in order to evaluate for potential clinically and statistically significant differences between Tavocept- and placebo-treated patients.
The incidence of cisplatin renal toxicity and anemia, and the impact of emesis on daily life were analyzed using the Cochran-Mantel-Haenszel (CMH) tests for proportions. The CMH test was applied in the comparison between Tavocept and placebo where adjustment for prognostic factors is clinically important (e.g., adjusting for baseline characteristics). To control for Type I error due to multiple comparisons of safety data, a nominal, 2-sided p-value of less than 0.0125 was used for each comparison of renal toxicity, anemia, and emesis.

[6] = system: bovine brain microtubule protein (α-/β-tubulin); assay: Electron microscopy of microtubule polymerization reactions; type: biochemical; conditions: presence and absence of paclitaxel
Experimental: (1 mM/1 mM/6 μM (v/v/v)). Electron micrograph samples were prepared by gently mixing samples of reactions with an equal volume of 50% sucrose in buffer P (0.1 M PIPES, 1 mM EGTA, pH 6.5) and mounting on carbon-coated grids (400 mesh formvar/carbon, Electron Microscopy Sciences). Grids were washed with cytochrome c (1%) and water and stained with uranyl acetate (1%). Electron microscopy was performed using a Philips 208S electron microscope (Philips Instruments) at an accelerating voltage of 60 kV. Micrographs were taken at 36,000× and 7,000× magnifications.

human cancer cell lines = assay: Paclitaxel- and platinum-induced cytotoxicity; type: cell-based
From the text: Tavocept mediates the non-enzymatic xenobiotic modification of sulfur-containing amino acid residues (e.g., cysteine) on proteins. As an engineered, non-naturally occurring agent (i.e., xenobiotic), Tavocept is autocatalytic and requires no protein cofactor to cause the xenobiotic modification of cysteine, but appears to be specific for cysteine residues located within a particular structural context (i.e., not all cysteines in a protein are so modified). Tavocept-mediated, xenobiotic modification represents a novel mechanism of action for a cancer treating agent and can be compared to a degree with post-translational modifications of cysteine residues in proteins (see, Table 3, below).

TrxR/Trx system = target: T3, TrxR/Trx system (Homo sapiens, UniProt P10599); assay: TrxR/Trx NADPH oxidation assay; type: biochemical
T3 construct: purchased Sigma (Trx); American Diagnostica (bovine TrxR)
T3 sequence (P10599 1-105): T1 sequence (P10599 1-105)
From the text: (Note: error bars are small and may be obscured by the symbols). […] (Note: error bars were omitted but assays were run in quadruplicate with typical errors of 5-8% between individual replicates). […] Panel D: Initial velocity reaction rates corresponding to progress curves shown in Panel C. With time, Trx-mesna and Trx-GSH are converted back to apo-Trx by Trx reductase (see also, FIG. 69, Panel E).

O=S(=O)([O-])CCSSCCS(=O)(=O)[O-].[Na+].[Na+] [Tavocept, disodium 2,2′-dithio-bis-ethane sulfonate]
inhibition of paclitaxel promoted microtubule protein polymerization ([1]; 12 mM Tavocept, qualitative): approximately 50% | effect on paclitaxel-promoted microtubule protein hyperpolymerization ([1]; Tavocept 1, 4, 8, 12 and 16 mM, paclitaxel 10 μM): inhibit paclitaxel-promoted microtubule protein hyperpolymerization in a dose-dependent manner; also recorded: normalizes | effect on GTP-catalyzed polymerization of microtubule protein ([1]; Tavocept 4, 6, 8, and 10 mM preincubated with microtubule protein on ice for 20 minutes): dose-dependent inhibitory effect; also recorded: inhibit GTP-catalyzed polymerization; also recorded: modulate tubulin polymerization in a concentration dependent manner | effect on paclitaxel/GTP/MgCl2-catalyzed microtubule protein hyperpolymerization ([1]; Tavocept 6, 8, 10 and 12 mM): inhibit paclitaxel/GTP/MgCl2-catalyzed microtubule protein hyperpolymerization in a dose dependent manner | Tavocept concentration at which final polymerization with paclitaxel was essentially equal to GTP control ([1]; paclitaxel 10 μM): ≥ 6 mM | Tavocept concentrations that reproducibly inhibit paclitaxel promoted hyperpolymerization ([1]; paclitaxel 10 μM): > 1 mM | Tavocept concentrations giving net polymerization equivalent to GTP/MgCl2 only control ([1]; paclitaxel/GTP/MgCl2 10 μM/1 mM/1 mM): 6 to 8 mM | Effect on TrxR/Trx mediated rate of NADPH oxidation during insulin reduction [2]: an effect on the TrxR/Trx mediated rate of NADPH oxidation | Prx 4 cysteine residues carrying Tavocept-derived mesna moiety [3]: Cys124; also recorded: cysteine 124 (and possibly cysteine 245) | inhibition of T790M EGFR kinase (T790M EGFR kinase; 10 μM or 100 μM ATP, physiological concentrations (<20 mM) of Tavocept): did not notably inhibit | inhibitory activity on T790M EGFR kinase activity (T790M EGFR kinase; Tavocept alone, 10 μM ATP): essentially no inhibitory activity | effect on Erlotinib inhibition of T790M EGFR kinase (T790M EGFR kinase; Tavocept in combination with Erlotinib, 10 μM ATP): strongly potentiated | effect on FTase activity (FTase): Inhibition of FTase activity | Tavocept in plasma ([4]; 41 g/m^2 Tavocept): ~14 mM | concentrations of Tavocept achieved in the clinic ([4]; as high as): ≤ 18000 µM | pharmacologically achievable plasma levels ([4]; doses of 18.4 g/m^2 and higher): ≥ 8 mM | Plasma concentrations achieved in clinical trials ([4]; in vivo): 10000 µM | pharmacologically achievable concentrations ([4]; in vivo): 6-10 mM | Cmax ([4]; read-out: Cmax values in plasma, dose of 18.4 g/m^2): ≥ 10000 µM and ~10000 µM | Cmax ([4]; read-out: Cmax values in plasma, doses as high as 41 g/m^2, typical): ~10000 µM | Cmax ([4]; read-out: typical Cmax values, administered at 18 g/m^2): ~10000 µM | Median survival advantage versus placebo ([5]; Male & Female Non-Smokers receiving paclitaxel and cisplatin): 12 months | Median survival advantage versus placebo ([5]; PS 1 ECOG Performance Status males and females receiving paclitaxel and cisplatin): 4.0 months | Overall median survival advantage versus placebo ([5]; all subjects, paclitaxel or docetaxel plus cisplatin): greater than 2 month | Protection against chemotherapy-induced kidney toxicity ([5]; compared to placebo): improvement in the relative creatine decrease from baseline in favor of Tavocept | Anemia ([5]; compared to placebo arm): reduced anemia | Kaplan Meier overall survival curve slope ([5]; during administration of up to 6 cycles, relative to Placebo arm): flattening of the slope of the survival curve for the Tavocept arm | Median survival advantage versus placebo ([5]; female subjects greater than or equal to 65 years of age receiving paclitaxel and cisplatin): 2.1 months | Survival advantage ([5]; female subjects with CNS Metastases present, paclitaxel plus cisplatin): Survival advantage in favor of Tavocept | Median survival advantage versus placebo ([5]; male and female subjects greater than or equal to 65 years of age receiving paclitaxel and cisplatin): 3.5 months | Median period of additional survival after starting new chemotherapy, longer than placebo-treated patients ([5]; patients previously receiving Tavocept, paclitaxel and cisplatin): 3.4 months | Median survival advantage versus placebo ([5]; subjects greater than or equal to 65 years of age): 3 months | abundance of microtubules on EM grids ([6]; Tavocept preincubated 20 minutes, qualitative): reduction in the abundance of microtubules | microtubule morphology ([6]; Tavocept): no effects on overall gross microtubule morphology | interference with paclitaxel- and platinum-induced cytotoxicity (human cancer cell lines): not to interfere | mode of action on Trx (TrxR/Trx system): alternative substrate inhibitor | NADPH oxidation by TrxR and Trx (TrxR/Trx system; increasing concentrations of test substance): increases
